Test results: PMC10184116, “Liposomal Permeation Assay for Droplet-Scale Pharmacokinetic Screening” (Journal of Medicinal Chemistry, 2023)
Starred links: 1 amine or outer side, 2 acyl side, 3 side chain; linkers in the order of their positions; H or OH if unused. Positions of bridges follow the written chain, without caps; N, C: chain ends. Non-standard residues stand in square brackets, D forms with d. Residues, ends and D or L forms follow the SMILES beside them. oXylylene = c1ccc(C[*:2])c(C[*:1])c1; Pra = C#CC[C@H](N)C(=O)O

Experiments:
Assay type in all cases: in vitro ADME
[1] = Parallel artificial membrane permeability assay (PAMPA), egg lecithin in dodecane; details: for Permeability class of control alkynes: control alkynes' permeabilities measured previously (ref 38) or via PAMPA (SI Table S1)
Procedure: A modified PAMPA was used for compound permeability measurements and was performed by Pharmaron. Briefly, alkyne stock solution (1 mM in DMSO) was diluted (50 μM final in PBS, pH 7.4). The lipid solution (1.8% w/v egg lecithin in dodecane, 5 μL spotting volume) was added to each acceptor well of the multiscreen-IP filter plate. PBS (300 μL) was added to all wells of the acceptor plate, and diluted alkyne stock (300 μL) was added to the wells of the donor plate in triplicate. The plate was assembled and incubated (16 h, 37 °C). An aliquot of donor well sample (2.5 μL) was diluted in PBS (47.5 μL), and an aliquot of the acceptor well (50 μL) was transferred to a 96-well analysis plate. Internal standard (100 nM alprazolam, 200 nM caffeine, 200 nM diclofenac in 100% MeOH) was added to all samples. Samples were vortexed and centrifuged (20 min, 3220g), then analyzed by LC-MS/MS.
The effective permeability (Pe) was calculated as [drawing 1] 1 [drawing 2] 2 where VD is the donor compartment volume (0.3 mL), VA is the acceptor compartment volume (0.3 mL), A is the filter area (0.24 cm^2), and t is the time (16 h).

[2] = Microplate fluorogenic CuAAC liposomal permeation assay (CF-N3-loaded SUVs); details: for Permeation in liposomal assay: reaction with liposomal CF-N3 (in words): real-time fluorogenic CuAAC
Procedure: DOPC or DOPG (10 mg/mL, 500 μL) were pipetted into a scintillation vial (20 mL), or DOPC (10 mg/mL, 400 μL) and POPC (10 mg/mL, 100 μL) were pipetted into a scintillation vial (20 mL). Samples were dried under argon then evaporatively dried in a vacuum desiccator (16 h). Degassed PBS buffer was combined with CF-N3 probe (1, 4, or 20 μM final) and ascorbic acid (AA, 10 mM). Lipid film was resuspended using degassed probe/AA/PBS buffer solution (1 mL), and the vial was incubated on a hot plate (15 min, 37 °C) with gentle vortexing (every 5 min). Lipid suspension was sonicated (1 min, Branson 3510 DTH ultrasonic cleaner) followed by rest (1 min), repeating 9 additional times. Liposomes were generated by extrusion (11 passages, 100 nm polycarbonate membrane, Mini-Extruder, Avanti Polar Lipids). Liposome solution was loaded into dialysis cassettes (10K MWCO, 3 mL Slide-A-Lyzer) and incubated in PBS buffer (1 L, 16 h, 4 °C). Liposome size distributions and stability were analyzed by dynamic light scattering (DLS, Zetasizer Nano ZS, Malvern Panalytical, United Kingdom).
The same protocol was followed to produce and characterize liposomes with other lipid compositions. DOPC (10 mg/mL, 400 μL), POPC (10 mg/mL, 100 μL), and cholesterol (5 mg/mL, 50/100 μL for 10%/20% mole of cholesterol, respectively) were combined, dried, and rehydrated with probe solution in scintillation vials. Brain polar lipid extract (25 mg/mL, 200 μL) or E. coli polar lipid extract (25 mg/mL, 200 μL) were dried and rehydrated with probe solution in scintillation vials.
CuSO4 (4 mg) was dissolved in DI H2O (500 μL, 50 mM), L-ascorbic acid (8.8 mg) was dissolved in PBS (500 μL, 100 mM), TBTA (2.7 mg) was dissolved in DMSO (509 μL, 10 mM), and mPEG17/mPEG8/mPEG4/PEG4s/propargyl amine/Cyc1–4 stock solutions (50 mM, with the purity > 95% by HPLC analysis) were prepared in DMSO, and CF-N3 was dissolved in DMSO (2 mM). Fluorogenic CuAAC reaction premixture was prepared by combining CuSO4 (10 μL) and TBTA (8 μL) in PBS (982 μL). Alkyne analytes were diluted (0.1 mM in CuAAC reaction premixture +2% DMSO). Free probe solution was prepared with CF-N3 (4 μM) and L-ascorbic acid (10 mM) in PBS buffer. Alkyne analyte in CuAAC premixture (5 μL) or CuAAC premixture +2% DMSO (5 μL) blank sample was combined with liposome (5 μL) or free probe solution (5 μL) in microtiter plate wells (384-well, Greiner, Thermo Scientific). Transient assay fluorescence (λex/λem = 488/530 nm) was detected using a multimode plate reader (CLARIOstar, BMG). Fluorescence fold gain was calculated by dividing the sample fluorescence by blank fluorescence. Initial velocities (V0) were obtained by linear regression analysis of the fluorescence fold gain after the initial lag period.
Assays were assembles as described above, combining liposomal probe (5 μL; 4 μ M CF-N3, 10 mM ascorbic acid, E. coli lipid SUV) with alkyne sample (5 μL) but with varying concentrations of mPEG4, mPEG8, mPEG17, and PEG4s (0.0001/0.001/0.005/0.01/0.05/0.1/0.5/1/5 mM) or Cyc1–4 (0.0001/0.001/0.005/0.01/0.05/0.1/0.5 mM). Broken liposomal V0 was obtained by combining liposomal probe (5 μL) with Triton X-100 solution (0.42 μL, 10% w/v), then adding the highest concentration sample for each alkyne (5 μL; 0.5 mM Cyc1–4 or 5 mM PEG samples). Transient assay fluorescence (λex/λem = 488/530 nm) was detected using a multimode plate reader (CLARIOstar). Each [alkyne] V0 was divided by the corresponding broken liposome maximum [alkyne] V0,broken. These normalized data were fit to a sigmoid to determine the [alkyne] at which V0/V0,broken was 50% maximum (PC50).

[3] = Microfluidic droplet-scale liposomal permeation assay of photocleaved control beads; details: photocleaved from control beads on-chip by UV, E. coli polar lipid SUVs, 9% dextran
Procedure: Microfluidic droplet-based screening was performed in a UV-free room as previously described.[37],[47] Briefly, perfluorous oil phase (Novec 7500) with stabilizer (4% Pico-Surf) was loaded into a syringe (1 mL, BD Tuberculin, BD Medical, Franklin Lakes, NJ) fitted with blunt-end needle (30 gauge QuantX, Fisnar, Germantown, WI) and connected to the microfluidic device OIL1 inlet via Tygon microbore tubing (0.01” I.D. × 0.03” O.D. × I.D., United States Plastic Corp.). Aqueous inputs (AQ1 and AQ2, see below) were loaded into the syringes and connected to AQ inlets of the microfluidic device. Novec 7500 was loaded into syringes (10 mL) and similarly connected to the device via Tygon microbore tubing as spacing oil (OIL2) and flow focusing oil (OIL3). The incubation channel was primed with Novec 7500 by filling from the OIL2 and OIL3 inputs before initiating flows from OIL1 and AQ inlets. OIL and AQ flows were driven by syringe pumps (Legato 101, KD Scientific, Holliston, MA): AQ1 (400 nL/min) AQ2 (400 nL/min), OIL1 (500 nL/min), OIL2 (16 μ L/min), and OIL3 (6 μL/min). […]
Fluorescence data were acquired using a custom confocal laser-induced fluorescence detection system. Droplets were detected based on internal standard (cTMR) signal in PMT 2 as previously described.[36] CF-N3 probe fluorescence was detected in PMT 1. […] Once a droplet was detected, the average PMT 1 signal was calculated. […]

[4] = multiple SUV lipid formulations

Structure (SMILES): C#CCOCCOCCOCCOCCS(=O)(=O)O [PEG4s, propargyl-PEG4-sulfonic acid]
- Permeability class of control alkynes [1]: impermeable

Structure (SMILES): C#CCN [PPA, propargylamine]
- Permeability class of control alkynes [1]: permeable
- Lag before reaching steady V0 in reaction with liposomal CF-N3 ([2]; CF-N3-loaded DOPC-POPC SUVs): ~10 min
- Permeation in liposomal assay: reaction with liposomal CF-N3 (in words) ([2]; CF-N3-loaded DOPC-POPC SUVs): reacted

Structure (SMILES): C#CC[C@H](NC(=O)[C@H](Cc1c[nH]cn1)NC(=O)[C@H](Cc1c[nH]c2ccccc12)NC(=O)[C@@H](NC(=O)[C@H](Cc1c[nH]cn1)NC(=O)[C@H](Cc1ccccc1)NC(=O)[C@H]1CSCc2ccccc2CSC[C@@H](NC(=O)[C@@H](N)C(C)C)C(=O)N[C@@H](CC(N)=O)C(=O)N[C@@H](C)C(=O)N1)[C@@H](C)CC)C(N)=O [DD5o] (H-V[dC]NA[dC]FHIWH[Pra]-NH2; linker 2-5 via oXylylene)
- Permeation in liposomal permeation assay (in words) ([2]; DOPG vesicles, PPA and PEG4s as controls (SI Figure S5)): permeable

Structure (SMILES): C#CCOCCOCCOCCOCCOCCOCCOCCOCCOCCOCCOCCOCCOCCOCCOCCOCCOC [mPEG17, propargyl-PEG17-methane]
- Permeability class of control alkynes [1]: impermeable
- Papp at 16 h, 50 μM ([1]; egg lecithin PAMPA, 50 μM, PBS pH 7.4, 16 h, 37 °C, read-out: PAMPA Pe): > 0.004 ×10⁻⁶ cm/s
- Permeation in liposomal assay: reaction with liposomal CF-N3 (in words) ([2]; CF-N3-loaded DOPC-POPC SUVs): undetectable
- Permeation in liposomal permeation assay (in words) [2, 4]: largely impermeable

Structure (SMILES): C#CCOCCOCCOCCOCCOCCOCCOCCOC [mPEG8, m-PEG8-propargyl]
- Permeation in liposomal permeation assay (in words) [2, 4]: readily permeated

Structure (SMILES): C#CCOCCOCCOCCOC [mPEG4, m-PEG4-propargyl]
- Permeation in liposomal permeation assay (in words) [2, 4]: readily permeated

Structure (SMILES): C#CCNC(=O)C(N)C(C)C (stereo not drawn) [PPA–V, valine-N-propargylamide]
- Permeation in droplet-scale liposomal permeation assay (in words) [3]: permeable
